Experimental data published in patent EP0594877A1, “Imidazo(1,2-c)quinazoline derivates as antihyper tensives and anti dysurics” (NATIONAL SCIENCE COUNCIL, priority 1992, dated 1994).

Columns and labels:
[1] = Antihypertensive activity: blood pressure and heart rate in anesthetized cats after i.v. administration; assay type: in vivo; conditions: for MBP (mm Hg) 1 hour / MBP (mm Hg) 2 hour: anesthetized cats
Description: (§1) Adult cats of either sex, 2-3 Kg, anesthetized with pentobarbital sodium (30 mg/Kg i.p.) were used. The trachea was intubated to provide artificial respiration with air by means of a Harvard respirator (respiration rate= 16-20/min and colume= 40-50 ml/stroke). Both femoral artery and vein were cannulated with PE 150 to monitor blood pressure and for drug administration respectively. Body temperature was maintained at 37.5°C with a heating pad and monitored with a rectal thermometer. Blood pressure was measured with a Statham P23D pressure transducer via a polyethylene cannula conducted to a right femoral artery. Heart rate was measured through a Grass Model 7B tachograph preamplifier triggered by the pulses of arterial blood pressure. All data were recorded on a Grass Model 7B polygraph.
The solvent (50% DM50) has no significant action on B.P. or H.R. However, Example 4 compound (250 µg/Kg) decreases B.P. immediately and reaches maximally at 5-10 minutes, and the duration of action is about 4 hours.

α₂-adrenergic receptor = α₂-adrenergic receptor binding assay with [³H] clonidine, rat brain cortex membranes; conditions: for Ki: 1 nM [³H] clonidine, 10 mM MgCl₂, rat brain cortex membranes, pH 7.4; for α₂/α₁ ratio: ratio of α₂ Ki to α₁ Ki
Description: (§2) After the removal of nuclei by centrifugation at 1000 x g for 10 min, P₂ membranes were pelleted by centrifuging the supernatant at 22,000 x g for 20 min. After two periods of centrifugation at 22,000 x g and resuspension in fresh buffer, the membrane suspension (about 2 mg/ml protein) was ready for use.
(§3) α₁-Adrenergic receptor binding assays (in triplicate) were carried out with 0.2 nM [³H] prazocin in a final volume of 1.0 ml of Tris buffer at pH 7.4 for 30 min at room temperature, using 10 µM phentolamine to determine non-specific binding. The concentrations of synthetic compounds for competition binding were in the range of 0.1 - 200 nM. α₂-adrenergic receptor binding assays (in triplicate) were carried out with 1 nM [³H] clonidine in the presence of 10 mM MgCl₂ and in a final volume of 1.0 ml of Tris buffer at pH 7.4 for 30 min at room temperature, using 10 µM clonidine to determine non-specific binding. The concentrations of synthetic compounds for competition binding were in the range of 0.1-100 µM. After binding had reached equilibrium, incubations were terminated by collecting the membranes on whatman GF/B filters; the filters were washed twice with 5 ml of 50 mM Tris buffer (pH 7.4) at 4°C. The amount of membrane protein used in each assay was in the range of 300-400 µg, as determined by the method of Lowry et al..

α₁-Adrenergic receptor = α₁-Adrenergic receptor binding assay with [³H] prazocin, rat brain cortex membranes; conditions: 0.2 nM [³H] prazocin, pH 7.4
Description: as §2, §3

[2] = Antagonistic effect on blood pressure responses induced by phenylephrine or serotonin in cats; assay type: in vivo; conditions: cats pretreated with dose of ED₅₀ (0.25mg/kg)
Description: • Fig. 1 is a does-response plot of 2-(4-phenyl-1-piperazinyl)methyl-2,3-dihydroimidazo[1,2-c]-quinazoline-5(6H)-one (Example 4) on blood pressure in 5 cats; • Fig. 2 is a time-course of various doeses of Example 4 compound on blood pressure in cats; and • Fig. 3 is a plot showing antagonistic effect of Example 4 compound (0.25mg/kg) on blood pressures induced by phenylephrine (0.015mg/kg) or serotonin (0.020mg/kg).
as §1

[3] = cats, i.v., 10 µg to 1 mg/kg, dose-dependent

## O=C1Nc2ccccc2C2=NC(CN3CCC(Cc4ccccc4)CC3)CN12 (centres unmarked) [Example 9, 2-[4-Benzyl-1-piperidinyl]methyl-2,3-dihydroimidazo[1,2-c]quinazolin-5(6H)-one]
[1]; dose 4.0 mg/Kg
  MBP (mm Hg) 1 hour: -30.6±4.7 mm Hg
α₂-adrenergic receptor
  Ki: 5.011 ± 0.011 µM
  α₂/α₁ ratio: 140
α₁-Adrenergic receptor
  Ki: 0.0358 ± 0.0086 µM

## O=C1Nc2ccccc2C2=NC(CN3CCN(Cc4ccccc4)CC3)CN12 (centres unmarked) [Example 8, 2-[4-Benzyl-1-piperazinyl]methyl-2,3-dihydroimidazo[1,2-c]quinazolin-5(6H)-one]
[1]; dose 4.0 mg/Kg
  MBP (mm Hg) 1 hour: -43.7±5.2 mm Hg
α₂-adrenergic receptor
  Ki: > 10 µM
  α₂/α₁ ratio: >11
α₁-Adrenergic receptor
  Ki: 0.85 µM

## O=C1Nc2ccccc2C2=NC(CN3CCN(Cc4ccc5c(c4)OCO5)CC3)CN12 (centres unmarked) [Example 6, 2-[4-piperonyl-1-piperazinyl]methyl-2,3-dihydroimidazo[1,2-c]quinazolin-5(6H)-one]
α₁-Adrenergic receptor
  Ki: > 0.1 µM

## COc1cc2c(cc1OC)C1=NC(CN3CCN(c4ccccc4)CC3)CN1C(=O)N2 (centres unmarked) [Example 25, 2-(4-phenyl-1-piperazinyl)methyl-8,9-dimethoxy-2,3-dihydro-imidazo[1,2-c]quinazolin-5(6H)-one]
[1]; dose 4.0 mg/Kg
  MBP (mm Hg) 1 hour: -38.2±5.7 mm Hg
  MBP (mm Hg) 2 hour: -12.6±5.0 mm Hg
α₂-adrenergic receptor
  Ki: 1.69 µM
  α₂/α₁ ratio: 54
α₁-Adrenergic receptor
  Ki: 0.03 ± 0.01 µM

## O=C1Nc2ccccc2C2=NC(CN3CCN(c4ccccc4)CC3)CN12 (centres unmarked) [Example 4, 2-(4-phenyl-1-piperazinyl)methyl-2,3-dihydroimidazo[1,2-c]quinazolin-5(6H)-one]
[1]; Felis catus, iv, cats, i.v., read-out: ED₅₀ of lowing blood pressure
  ED50: 0.25 mg/kg
[1]; anesthetized cat, 250 µg/Kg i.v.
  time at which decrease of B.P. reaches maximally: 5 to 10 min
[1]; dose 0.125 mg/Kg
  MBP (mm Hg) 1 hour: -12.5±4.6 mm Hg
[1]; dose 0.25 mg/Kg
  MBP (mm Hg) 1 hour: -23.1±2.7 mm Hg
  MBP (mm Hg) 2 hour: -8.75±5.7 mm Hg
[1]; dose 0.5 mg/Kg
  MBP (mm Hg) 1 hour: -49.3±1.5 mm Hg
  MBP (mm Hg) 2 hour: -32.5±2.5 mm Hg
[1]; dose 1.0 mg/Kg
  MBP (mm Hg) 1 hour: -57.5±2.5 mm Hg
  MBP (mm Hg) 2 hour: -44.5±0.5 mm Hg
[1]; [3]
  changes in heart rate (HR): biphasically (initially increases, then decreases)
  effect on SBP and DBP: decreases both SBP and DBP
[2]; phenylephrine 0.015mg/kg, p<0.02
  blood pressure response to PE: significantly antagonizes
[2]; serotonin 0.020mg/kg, p>0.05
  blood pressure response to 5-HT: no effect
α₁-Adrenergic receptor
  Ki: 0.00201 ± 9e-05 µM

## COc1ccc(N2CCN(CC3CN4C(=O)Nc5ccccc5C4=N3)CC2)cc1 (centres unmarked) [Example 16, 2-[1-(4-methoxyphenyl)piperazinyl]methyl-2,3-dihydroimidazo[1,2-c]quinazolin-5(6H)-one]
α₁-Adrenergic receptor
  Ki: > 0.1 µM

## O=C(c1ccc(F)cc1)C1CCN(CC2CN3C(=O)Nc4ccccc4C3=N2)CC1 (centres unmarked) [Example 15, 2-[1-(4-p-fluorobenzoyl)piperidinyl]methyl-2,3-dihydroimidazo[1,2-c]quinazolin-5(6H)-one]
[1]; dose 4.0 mg/Kg
  MBP (mm Hg) 1 hour: -30 ±7.3 mm Hg
  MBP (mm Hg) 2 hour: -13.8±8.9 mm Hg

## O=C1Nc2ccccc2C2=NC(CN3CCN(c4ccccc4Cl)CC3)CN12 (centres unmarked) [Example 26, 2-[4-(2-chlorophenyl)-1-piperazinyl]methyl-2,3-dihydroimidazo[1,2-c]quinazolin-5(6H)-one]
[1]; dose 0.5 mg/Kg
  MBP (mm Hg) 1 hour: -25.5±3.4 mm Hg
  MBP (mm Hg) 2 hour: -5.7±1.5 mm Hg
[1]; dose 1.0 mg/Kg
  MBP (mm Hg) 1 hour: -40.7±9.7 mm Hg
  MBP (mm Hg) 2 hour: -12.6±3.4 mm Hg
α₂-adrenergic receptor
  Ki: 3.17 ± 0.396 µM
  α₂/α₁ ratio: 3015
α₁-Adrenergic receptor
  Ki: 0.0011 ± 5e-05 µM

## O=C1Nc2ccccc2C2=NC(CN3CCN(c4ccccn4)CC3)CN12 (centres unmarked) [Example 10, 2-[4-(2-Pyridinyl)-1-piperazinyl]methyl-2,3-dihydroimidazo[1,2-c]quinazolin-5(6H)-one]
α₁-Adrenergic receptor
  Ki: 0.0959 ± 0.0052 µM

## COc1ccccc1N1CCN(CC2CN3C(=O)Nc4ccccc4C3=N2)CC1 (centres unmarked) [Example 7, 2-[4-(2-methoxy)phenyl-1-piperazinyl]methyl-2,3-dihydroimidazo[1,2-c]quinazolin-5(6H)-one]
[1]; dose 0.25 mg/Kg
  MBP (mm Hg) 1 hour: -17.5 mm Hg
[1]; dose 0.5 mg/Kg
  MBP (mm Hg) 1 hour: -20 mm Hg
  MBP (mm Hg) 2 hour: -18.8 mm Hg
[1]; dose 1.0 mg/Kg
  MBP (mm Hg) 1 hour: -30 mm Hg
  MBP (mm Hg) 2 hour: -15 mm Hg
α₂-adrenergic receptor
  Ki: 3.45 ± 0.329 µM
  α₂/α₁ ratio: 2654
α₁-Adrenergic receptor
  Ki: 0.0013 ± 0.0005 µM

## COc1cccc(N2CCN(CC3CN4C(=O)Nc5ccccc5C4=N3)CC2)c1 (centres unmarked) [Example 17, 2-[1-(3-methoxyphenyl)piperazinyl]methyl-2,3-dihydroimidazo[1,2-c]quinazolin-5(6H)-one]
[1]; dose 4.0 mg/Kg
  MBP (mm Hg) 1 hour: -20.3±10.2 mm Hg
  MBP (mm Hg) 2 hour: -8.5±2.6 mm Hg

## O=C1Nc2ccccc2C2=NC(CNC3CCN(Cc4ccccc4)CC3)CN12 (centres unmarked) [Example 12, 2-[1-benzylpiperidin-4-yl]aminomethyl-2,3-dihydroimidazo[1,2-c]quinazolin-5(6H)-one]
α₁-Adrenergic receptor
  Ki: 0.586 ± 0.009 µM

## CN1C(=O)N2CC(CN3CCN(c4ccccc4Cl)CC3)N=C2c2ccccc21 (centres unmarked) [Example 28, 2-[4-(2-chlorophenyl)-1-piperazinyl]methyl-6-methyl-2,3-dihydroimidazo[1,2-c]quinazolin-5-one]
α₁-Adrenergic receptor
  Ki: 0.00068 ± 0.00026 µM

## 2-(4-phenyl-1-piperazinyl)methyl-2,3-dihydroimidazo[1,2-c]quinazolin-5(6H)-thione [Example 20]
[1]; dose 4.0 mg/Kg
  MBP (mm Hg) 1 hour: -33.9±9.7 mm Hg
  MBP (mm Hg) 2 hour: -22.5±7.6 mm Hg

## 2-[4-(4-fluorobenzyl)-1-piperazinyl]methyl-2,3-dihydroimidazo[1,2-c]quinazolin-5(6H)-one [Example 11]
α₂-adrenergic receptor
  Ki: 0.391 µM
  α₂/α₁ ratio: 27
α₁-Adrenergic receptor
  Ki: 0.0144 µM
